Test results taken from PubChem BioAssay AID248 (DTP/NCI, 2004).
“And” between values parts separate entries of the source, which are not always exact repeats. Equal values may be shown once. Toxic doses and inconclusive results are not listed. No stated cut-off is given here; in the data, active means T/C of 150% or more; inactive means T/C below 125%.

Tested on: L1210 leukemia ip in BDF1 mice, survival T/C
Test: NCI In Vivo Anticancer Drug Screen. Data for tumor model L1210 Leukemia (intraperitoneal) in B6D2F1 (BDF1) mice
Conditions: endpoint: mean survival time, higher = longer survival
Outline: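 Each compound was tested against a transplantable tumor grown in mice. The endpoint was survival, with treated animals benchmarked against vehicle controls as a simple ratio.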

[1] = dose: 6.25 mg/kg/injection, schedule: Q01DX009 (ip), vehicle: Klucel (hydroxypropylcellulose) (HPC)
[2] = dose: 12.5 mg/kg/injection, schedule: Q01DX009 (ip), vehicle: Klucel (hydroxypropylcellulose) (HPC)
[3] = dose: 75.0 mg/kg/injection, schedule: Q01DX001 (ip), vehicle: Klucel (hydroxypropylcellulose) (HPC)
[4] = dose: 100.0 mg/kg/injection, schedule: Q01DX009 (ip), vehicle: saline with Tween-80
[5] = dose: 100.0 mg/kg/injection, schedule: Q04DX003 (ip), vehicle: saline with Tween-80
[6] = dose: 200.0 mg/kg/injection, schedule: Q01DX009 (ip), vehicle: saline with Tween-80
[7] = dose: 200.0 mg/kg/injection, schedule: Q04DX003 (ip), vehicle: saline with Tween-80
[8] = dose: 400.0 mg/kg/injection, schedule: Q01DX009 (ip), vehicle: saline with Tween-80
[9] = dose: 400.0 mg/kg/injection, schedule: Q04DX003 (ip), vehicle: saline with Tween-80
[10] = dose: 100.0 mg/kg/injection, schedule: Q04DX003 (ip), vehicle: Klucel (hydroxypropylcellulose) (HPC)
[11] = dose: 200.0 mg/kg/injection, schedule: Q04DX003 (ip), vehicle: Klucel (hydroxypropylcellulose) (HPC)
[12] = dose: 400.0 mg/kg/injection, schedule: Q04DX003 (ip), vehicle: Klucel (hydroxypropylcellulose) (HPC)
[13] = dose: 100.0 mg/kg/injection, schedule: Q04DX003 (ip), vehicle: saline
[14] = dose: 200.0 mg/kg/injection, schedule: Q04DX003 (ip), vehicle: saline
[15] = dose: 100.0 mg/kg/injection, schedule: Q04DX002 (ip), vehicle: Klucel (hydroxypropylcellulose) (HPC)
[16] = dose: 200.0 mg/kg/injection, schedule: Q04DX002 (ip), vehicle: Klucel (hydroxypropylcellulose) (HPC)
[17] = dose: 400.0 mg/kg/injection, schedule: Q04DX002 (ip), vehicle: Klucel (hydroxypropylcellulose) (HPC)
[18] = dose: 50.0 mg/kg/injection, schedule: Q01DX009 (ip), vehicle: saline with Tween-80
[19] = dose: 50.0 mg/kg/injection, schedule: Q04DX003 (ip), vehicle: Klucel (hydroxypropylcellulose) (HPC)
[20] = dose: 100.0 mg/kg/injection, schedule: Q01DX001 (ip), vehicle: saline
[21] = dose: 200.0 mg/kg/injection, schedule: Q01DX001 (ip), vehicle: saline
[22] = dose: 400.0 mg/kg/injection, schedule: Q01DX001 (ip), vehicle: saline

Measured: T/C

O=C1C=C(O/C=C/C(C(F)(F)F)C(F)(F)F)C(=O)c2ccccc21
inactive: dose: 6.25 mg/kg/injection, schedule: Q01DX001 (ip), vehicle: Klucel (hydroxypropylcellulose) (HPC) 100 % of control | [1] 91 % of control | dose: 12.5 mg/kg/injection, schedule: Q01DX001 (ip), vehicle: Klucel (hydroxypropylcellulose) (HPC) 101 % of control | [2] 95 % of control | dose: 25.0 mg/kg/injection, schedule: Q01DX001 (ip), vehicle: Klucel (hydroxypropylcellulose) (HPC) 103 % of control | dose: 50.0 mg/kg/injection, schedule: Q01DX001 (ip), vehicle: Klucel (hydroxypropylcellulose) (HPC) 101 % of control | [3] 96 % of control

CCOc1nc(=O)n(CC(=O)c2ccc(Cl)s2)cc1F
inactive: [4] 105 % of control | [5] 103 % of control | [6] 90 % of control | [7] 103 % of control | [8] 86 % of control | [9] 94 % of control

CCC(=O)Nc1cc(Cl)ccc1C
inactive: dose: 100.0 mg/kg/injection, schedule: Q01DX009 (ip), vehicle: Klucel (hydroxypropylcellulose) (HPC) 98 % of control | [10] 102 % of control | dose: 200.0 mg/kg/injection, schedule: Q01DX009 (ip), vehicle: Klucel (hydroxypropylcellulose) (HPC) 98 % of control | [11] 102 % of control | dose: 400.0 mg/kg/injection, schedule: Q01DX009 (ip), vehicle: Klucel (hydroxypropylcellulose) (HPC) 95 % of control | [12] 102 % of control

NC(c1ccccc1)c1ccccc1
inactive: [13] 104 % of control | [14] 95 % of control

Cc1cc(N(CCCOS(C)(=O)=O)CCCOS(C)(=O)=O)ccc1C=Nc1cc(Br)c(O)c(Br)c1
inactive: [4] 94 % of control | [5] 92 % of control | [6] 94 % of control | [7] 90 % of control | [8] 89 % of control | [9] 94 % of control

CCCCCCCCCCN=C(N)CSSCC(N)=NCCCCCCCCCC
inactive: dose: 0.39 mg/kg/injection, schedule: Q04DX002 (ip), vehicle: saline with Tween-80 95 % of control | dose: 0.78 mg/kg/injection, schedule: Q04DX002 (ip), vehicle: saline with Tween-80 100 % of control | dose: 1.56 mg/kg/injection, schedule: Q04DX002 (ip), vehicle: saline with Tween-80 105 % of control

O=C(Nc1cccc([N+](=O)[O-])c1)Nc1cccc(C(F)(F)F)c1
inactive: [15] 101 % of control | [16] 99 % of control | [17] 96 % of control

CC(=O)Oc1c(I)cc(I)cc1C(=O)Nc1ccc(Cl)cc1
inactive: [18] 94 % of control | [4] 87 % of control

CC(=O)CC(=O)c1cc(C(C)=O)c(O)c(C(C)=O)c1
inactive: [19] 101 % of control | [10] 108 % of control | [11] 103 % of control | [12] 101 % of control

O=C(NCO)NCO
inactive: [3] 95 % of control | dose: 150.0 mg/kg/injection, schedule: Q01DX001 (ip), vehicle: Klucel (hydroxypropylcellulose) (HPC) 93 % of control | dose: 300.0 mg/kg/injection, schedule: Q01DX001 (ip), vehicle: Klucel (hydroxypropylcellulose) (HPC) 97 % of control

Clc1ccc2nc(CBr)cnc2c1
inactive: dose: 3.13 mg/kg/injection, schedule: Q01DX009 (ip), vehicle: Klucel (hydroxypropylcellulose) (HPC) 97 % of control | [1] 95 % of control and 102 % of control | [2] 100 % of control and 120 % of control and 87 % of control | dose: 25.0 mg/kg/injection, schedule: Q01DX009 (ip), vehicle: saline with Tween-80 100 % of control | dose: 25.0 mg/kg/injection, schedule: Q04DX003 (ip), vehicle: Klucel (hydroxypropylcellulose) (HPC) 95 % of control | [18] 95 % of control | [19] 96 % of control | [10] 93 % of control | [5] 90 % of control

Nc1cc(SC(c2ccccc2)c2ccccc2)c([N+](=O)[O-])c(N)n1
inactive: dose: 100.0 mg/kg/injection, schedule: Q01DX001 (ip), vehicle: saline with Tween-80 92 % of control | dose: 200.0 mg/kg/injection, schedule: Q01DX001 (ip), vehicle: saline with Tween-80 101 % of control | dose: 400.0 mg/kg/injection, schedule: Q01DX001 (ip), vehicle: saline with Tween-80 95 % of control

NN1CCCCCC1
inactive: [13] 102 % of control | [14] 97 % of control | dose: 400.0 mg/kg/injection, schedule: Q04DX003 (ip), vehicle: saline 94 % of control

CC(=O)Oc1c(Cl)c(Cl)c(Cl)c(Cl)c1Cl
inactive: dose: 100.0 mg/kg/injection, schedule: Q01DX009 (ip), vehicle: saline sonified 101 % of control | [10] 100 % of control | dose: 200.0 mg/kg/injection, schedule: Q01DX009 (ip), vehicle: saline sonified 107 % of control | [11] 100 % of control | dose: 400.0 mg/kg/injection, schedule: Q01DX009 (ip), vehicle: saline sonified 106 % of control | [12] 93 % of control

C=CC(C)C1CCC2(C)C3=C(C(=O)CC12C)C1(C)CCC(OC(C)=O)C(C)(C)C1=C(OC(C)=O)C3=O (configuration not stated)
inactive: [5] 91 % of control | [7] 91 % of control | [9] 87 % of control

O=C(OCCCCOC(=O)c1cccc([N+](=O)[O-])c1)c1cccc([N+](=O)[O-])c1
inactive: dose: 3.12 mg/kg/injection, schedule: Q01DX009 (ip), vehicle: saline with Tween-80 95 % of control | dose: 6.25 mg/kg/injection, schedule: Q01DX009 (ip), vehicle: saline with Tween-80 100 % of control | dose: 12.5 mg/kg/injection, schedule: Q01DX009 (ip), vehicle: saline with Tween-80 97 % of control | dose: 100.0 mg/kg/injection, schedule: Q01DX001 (ip), vehicle: other 102 % of control | dose: 200.0 mg/kg/injection, schedule: Q01DX001 (ip), vehicle: other 95 % of control | dose: 400.0 mg/kg/injection, schedule: Q01DX001 (ip), vehicle: other 93 % of control

COC(=O)C1CC2(CNc3ccccc32)CN1C (configuration not stated)
inactive: [10] 90 % of control | [11] 89 % of control | [12] 89 % of control

CCCCCCCCC(=O)N1CCCCC1C (configuration not stated)
inactive: [15] 96 % of control | [16] 100 % of control | [17] 88 % of control

CCC(Nc1ccccc1)C(=O)O (configuration not stated)
inactive: [20] 96 % of control | [21] 100 % of control | [22] 102 % of control

CSc1ncnc2c1C[P+](Cc1ccccc1)(c1ccccc1)CC2 (configuration not stated)
inactive: dose: 100.0 mg/kg/injection, schedule: Q04DX002 (ip), vehicle: saline with Tween-80 103 % of control

N/C(N=P(c1ccccc1)(c1ccccc1)c1ccccc1)=N\S(=O)(=O)c1ccc([N+](=O)[O-])cc1
inactive: dose: 25.0 mg/kg/injection, schedule: Q04DX002 (ip), vehicle: Klucel (hydroxypropylcellulose) (HPC) 104 % of control | dose: 50.0 mg/kg/injection, schedule: Q04DX002 (ip), vehicle: Klucel (hydroxypropylcellulose) (HPC) 111 % of control | [15] 96 % of control

O=C1C=CC(=O)C2C3C=CC(CC3)C12 (configuration not stated)
inactive: [20] 107 % of control | [21] 98 % of control | [22] 98 % of control

CCCCCCCCCCCC[N+]1(C)CC[N+](C)(CCCCCCCCCCCC)CC1 (configuration not stated)
inactive: dose: 100.0 mg/kg/injection, schedule: Q04DX002 (ip), vehicle: other 105 % of control | dose: 200.0 mg/kg/injection, schedule: Q04DX002 (ip), vehicle: other 101 % of control

CC(=O)C(C(C)=O)C(C)(C)C
inactive: dose: 50.0 mg/kg/injection, schedule: Q01DX001 (ip), vehicle: saline 95 % of control | [20] 97 % of control | [21] 90 % of control | [22] 95 % of control

CCCNC(=O)NC1CCCCC1
inactive: dose: 264.0 mg/kg/injection, schedule: Q01DX001 (ip), vehicle: carboxymethylcellulose (CMC) 101 % of control | dose: 400.0 mg/kg/injection, schedule: Q01DX001 (ip), vehicle: carboxymethylcellulose (CMC) 90 % of control | dose: 600.0 mg/kg/injection, schedule: Q01DX001 (ip), vehicle: carboxymethylcellulose (CMC) 98 % of control
